From US20190330142A1, “INHIBITORS OF MTOR-DEPTOR INTERACTIONS AND METHODS OF USE THEREOF” (The Regents of the University of California, priority 2016, published 2019)
Entries after “also recorded” stand apart in the source; their conditions may differ. Where two headings read alike, the source gives them in different places.

Key:
[1] = tested on: 8226 MM cell line; assay: MTT cytotoxicity assay, 8226 MM cells; conditions: for IC50: 48 h; for anti-MM cytotoxicity in MTT assay compared to parent B: 48 hr MTT
Description: In mTORC1, mTOR phosphorylates the p70S6 kinase. Thus, a Western blot was used to test for induction of p70 phosphorylation in this secondary screen. Compounds were tested at 0.5, 1, and 2 uM with 6 hrs in vitro exposure. […] A summary of the p70 phosphorylation data from 4 separate experiments where derivatives were used at 0.5 uM, is shown in FIG. 3B. These first 8 derivatives were also screened for cytotoxicity against the same 8226 MM cell line in 48 hr MTT assays.
P70 phosphorylation was measured in 8226 cells treated for 6 hrs. […] The structures and biological activity of all derivatives are shown in Tables 1-4, categorized by structural modification.
The MTT assay was performed by seeding 1-2×10^4 target cells in 0.1 ml of complete media into wells of a 96 well microtiter plate. After incubation with compounds, the reduction of MTT to formazan by live cells was determined with a microplate ELISA reader equipped with a 570 nm filter.
The induction of p70 phosphorylation by derivative compounds was determined by densitometry, comparing immunoblot signals of phosphorylated p70 vs total p70. This ratio was then compared to that resulting from parental compound B, with the latter ratio arbitrarily placed at ‘1’. The IC50 for MTT cytotoxicity was determined using a range of concentrations of derivatives. Percent apoptosis was enumerated by flow cytometry in drug-treated cultures by subtracting control apoptosis determined from DMSO-treated cultures.

[2] = tested on: p70 phosphorylation (mTORC1 activity) in 8226 cells; assay: p70 phosphorylation Western blot (TORC1 activity) in 8226 cells; assay type: cell-based; conditions: for induction of p70 phosphorylation / p70 phosphorylation vs the parent B: 6 hrs; for p70 phosphorylation vs the parent B: compound B arbitrarily 1
Description: In mTORC1, mTOR phosphorylates the p70S6 kinase.
The 8226 and MM1.S myeloma cell lines were purchased from ATCC. The cell lines were characterized by FISH analysis and shown to contain MAF/Ig translocations. Western blot confirmed a significant over-expression of DEPTOR protein. Both lines were tested for mycoplasma within the last 6 months and were negative. Western blot assay—Protein was extracted and separated by 12.5% SDS-PAGE as previously described (see new ref below). Proteins were transferred to polyvinylidene difluoride membranes and their expression was detected utilizing specific antibodies purchased from Cell Signaling (Beverly, Mass.).

[3] = tested on: MM1.S MM cell line; assay: MTT cytotoxicity assay, MM1.S cells; assay type: cell-based; conditions: Homo sapiens, 48 hr
Description: The MTT assay was performed by seeding 1-2×10^4 target cells in 0.1 ml of complete media into wells of a 96 well microtiter plate. After incubation with compounds, the reduction of MTT to formazan by live cells was determined with a microplate ELISA reader equipped with a 570 nm filter. Quadruplicate wells were run for each group and the SD of each group was always <5% of the mean.

[4] = 8226 cells, 0.5 uM, compared to compound B
[5] = read-out: MTT (IC50, uM) 8226, 48 hr

| Structure (SMILES) | IC50 ([1]; read-out: MTT (IC50, uM) 8226) [µM] | induction of p70 phosphorylation [2, 4] | p70 phosphorylation vs the parent B ([2]; 8226 cells, 0.5 uM) | anti-MM cytotoxicity in MTT assay compared to parent B [1] | IC50 [3] [µM] | toxicity to 8226 cells in p70 experiment ([2]; 0.5 uM) | enhancement of p70 phosphorylation ([2]; 8226 cells, 0.05-0.2 uM) | induction of p70 phosphorylation ([2]; 8226 cells, 1 or 2 uM) | IC50 [1, 5] [µM] |
| --- | --- | --- | --- | --- | --- | --- | --- | --- | --- |
| C#CC(C)(C)OC(=O)NN=C1C(Cl)=C(Cl)C(Cl)=C1Cl [4i, 2-Methylbut-3-yn-2-yl 2-(perchlorocyclopenta-2,4-dien-1-ylidene)hydrazine-1-carboxylate] | > 5 | minimal increase |  |  |  |  |  |  |  |
| CC(=O)NN=C1C(Cl)=C(Cl)C(Cl)=C1Cl [4c, N′-(Perchlorocyclopenta-2,4-dien-1-ylidene)acetohydrazide] | 1 | no increase | no increase |  |  |  |  |  |  |
| O=C(NN=C1C(Cl)=C(Cl)C(Cl)=C1Cl)c1ccccc1 [compound 4a, N′-(Perchlorocyclopenta-2,4-dien-1-ylidene)benzohydrazide] | 0.6 |  |  | enhanced cytotoxic effects | 0.8 | considerable cell death | no enhancement of p70 phosphorylation | toxic and showed degradation of p70 |  |
| ClC1=C(Cl)C(Cl)=C(Cl)C1=NNc1ccccc1 [3d, 1-(Perchlorocyclopenta-2,4-dien-1-ylidene)-2-phenylhydrazine] | 0.6 |  |  | lower IC50s; also recorded: enhanced cytotoxic effects | 2 |  |  |  |  |
| CC(C)(C)NN=C1C(Cl)=C(Cl)C(Cl)=C1Cl [compound 3c, 1-(tert-Butyl)-2-(perchlorocyclopenta-2,4-dien-1-ylidene)hydrazine] | > 3 | only modest activity | no increase |  | > 3 |  |  |  |  |
| NN=c1c2ccccc2oc2ccccc12 [6b, (9H-Xanthen-9-ylidene)hydrazine] | > 5 | did not show any improvement | no increase | did not show any improvement | > 5 |  |  |  |  |
| ClC1=C(Cl)C(Cl)=C(Cl)C1=NNC1CCCCC1 [3b, 1-Cyclohexyl-2-(perchlorocyclopenta-2,4-dien-1-ylidene)hydrazine] | > 3 |  | no increase |  | > 3 |  |  |  |  |
| O=C(c1ccccc1)N(N=C1C(Cl)=C(Cl)C(Cl)=C1Cl)C(=O)c1ccccc1 [compound 4b, N-Benzoyl-N′-(perchlorocyclopenta-2,4-dien-1-ylidene)benzohydrazide] | 0.8 | more effective than the parent compound B |  | lower IC50s; also recorded: enhanced cytotoxic effects | 2 |  |  |  |  |
| COC1(OC)C(Cl)=C(Cl)C(Cl)=C1Cl [7b, 1,2,3,4-Tetrachloro-5,5-dimethoxycyclopenta-1,3-diene] |  | poor activity | no increase | poor activity |  |  |  |  | > 5 |
| COc1cccc(NN=C2C(Cl)=C(Cl)C(Cl)=C2Cl)c1 [3i, 1-(3-Methoxyphenyl)-2-(perchlorocyclopenta-2,4-dien-1-ylidene)hydrazine] | > 3 |  | no increase |  | > 3 |  |  |  |  |
| ON=C1C(Cl)=C(Cl)C(Cl)=C1Cl [7a, 2,3,4,5-Tetrachlorocyclopenta-2,4-dien-1-one oxime] |  | poor activity | no increase | poor activity |  |  |  |  | > 5 |
| Fc1cccc(NN=C2c3ccccc3-c3ccccc32)c1 [6d, 1-(9H-Fluoren-9-ylidene)-2-(3-fluorophenyl)hydrazine] | > 5 | did not show any activity | no increase | did not show any activity | > 5 |  |  |  |  |
